This passage reports GI50 and TGI results from PubChem BioAssay (NCI).

“And” between values parts separate entries of the source, which are not always exact repeats. Equal entries are not always repeated.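 Grown in 96-well plates, cells were treated for 48 hours with each compound at five concentrations. Insufficient inhibition: endpoint recorded as highest concentration tested. GI50 = concentration required for 50% inhibition of growth. TGI is the concentration that stops growth completely.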

Holding throughout (experiment): inhibition of tumour cell growth, NCI panel, 48 h
Assay [1] concerns RXF 393 renal.
Assay [2] deals with UO-31 renal.
Assay [3] relates to IGROV1 ovarian.
Assay [4] has as its system COLO 205 colon.
Assay [5] concerns HT29 colon.
The test system of assay [6] is NCI-H226 lung.
The subject of assay [7] is SF-268 CNS.
Assay [8] relates to HS 578T breast.
Assay [9] deals with A498 renal.
Assay [10] deals with SR leukemia.

Consider `CN(C)CCOc1ccc(/C(=C(/CCCl)c2ccccc2)c2ccccc2)cc1`, for which the GI50 is 698 nM in assay [1]; 900 nM in assay [2]; 1330 nM in assay [3]; 858 nM in assay [4]; 598 nM in assay [5]; 1340 nM in assay [6]. For the same compound, the GI50 in [7] was 1510 nM; in [8], 895 nM; in [9], 885 nM; in [10] it was 1180 nM. Besides, the TGI is 1.4 µM in assay [1]; 13.8 µM and 30.9 µM in assay [2]; 13.4 µM and 39.3 µM in assay [6]; 17.4 µM and 33 µM in assay [7]; 3.12 µM in [9]; 3.13 µM and 10 µM in assay [10].

For `COc1ccc2c(c1)C(=O)C(=O)c1cc(O)c(OC)c(OC)c1-2`, the GI50 in assay [1] is 1560 nM; in assay [3] it was 1710 nM; in [4] it was 1890 nM; in assay [6], 1950 nM; in [7] it was 1860 nM; in assay [8], 2790 nM. The GI50 in assay [9] was 5070 nM. Moreover, the TGI in assay [1] was 1.65 µM and 3.63 µM; in [2], 1.7 µM; in [3], 1.56 µM and 3.08 µM; in [4], 3.54 µM and 3.74 µM; in [5] it was 3.83 µM; in assay [6], 14.3 µM and 3.9 µM. Besides, the TGI in [7] was 1.96 µM and 3.26 µM; in assay [8], 2.78 µM and 8.57 µM; in assay [9], 10.5 µM and 12.9 µM; in assay [10], 6.39 µM.

`CC1CCN(CCCCCOc2ccc3oc4cc(Cl)ccc4c(=O)c3c2)CC1`: the GI50 in [1] was 5750 nM; in assay [2], 5700 nM; in assay [3] it was 6710 nM; in [4], 6090 nM; in assay [5] it was 1720 nM; in assay [6] it was 9420 nM. Further, the GI50 was 7400 nM in assay [7], 7320 nM in [8], 5970 nM in [9] and 1410 nM in [10]. Further, the TGI in assay [1] was 12.7 µM; in assay [2], 11.8 µM; in assay [3] it was 15.3 µM; in assay [4], 14.1 µM; in [5], 6.2 µM; in [6] it was 20.2 µM. The TGI turned out to be 15.8 µM in [7], 17.8 µM in [8], 12.7 µM in assay [9] and 5.18 µM in [10].

Consider `CN1CCN(c2ccc3nc(-c4c(N)c5c(F)cccc5[nH]c4=O)[nH]c3c2)CC1`, for which the GI50 in assay [1] was 216 nM and 212 nM and 282 nM; in assay [2], 347 nM and 224 nM and 232 nM; in assay [3] it was 325 nM and 272 nM and 302 nM; in assay [4], 965 nM and 496 nM and 2260 nM; in [5] it was 909 nM and 663 nM and 1430 nM; in [6], 525 nM and 476 nM and 537 nM. Moreover, the GI50 in assay [7] was 1390 nM and 717 nM and 1650 nM; in [8] it was 791 nM and 286 nM and 974 nM; in [9] it was 224 nM and 144 nM and 135 nM; in [10] it was 472 nM and 284 nM and 502 nM. The TGI was 1.19 µM and 0.632 µM and 1.18 µM in assay [1]; 1.91 µM and > 2.8 µM and 1.54 µM in [2]; 4.94 µM and > 3.98 µM and 11.8 µM in assay [3]; 2.31 µM and > 2.04 µM and 17.2 µM in assay [4]; 2.89 µM and > 5.42 µM and 11.2 µM in assay [5]; 8.36 µM and > 6.97 µM and 17.6 µM in assay [6]. Further, the TGI is 4.16 µM and > 2.83 µM and 10.1 µM in [7]; 5.77 µM and > 2.37 µM and 9.75 µM in assay [8]; 10.2 µM and 1.44 µM and 7.97 µM in assay [10].

Regarding `COc1ccc2nc3cc(Cl)ccc3c(N3CCN(c4ccnc(N5CCOCC5)n4)CC3)c2c1`, the GI50 was 2680 nM in [1]; > 100000 nM in [2]; > 100000 nM in [3]; 6660 nM in assay [4]; 2900 nM in [5]; > 100000 nM in assay [6]. For the same compound, the GI50 in assay [7] was 9740 nM; in [8], 12300 nM; in assay [9] it was 27800 nM; in [10] it was 3290 nM. The TGI was 16.1 µM in assay [1]; > 100 µM in [2]; > 100 µM in assay [3]; > 100 µM in assay [4]; 16.7 µM in assay [5]; > 100 µM in assay [6]. Further, the TGI in [7], in assay [8], in [9] and in [10] was > 100 µM in each case.

For the compound `Cc1noc(C)c1-c1cc(O)cc(C(O)c2ccccc2)c1` (configuration not stated), the GI50 was 4580 nM in [1]; 1080 nM in assay [2]; 23200 nM in assay [3]; 5250 nM in assay [4]; 4540 nM in assay [5]; 21300 nM in [6]. Moreover, the GI50 in [7] was 39300 nM; in [8] it was 1930 nM; in [9], 2600 nM; in assay [10], 1010 nM. The TGI in assay [1], in [2], in assay [3], in [4], in assay [5] and in [6] was > 100 µM each time. Further, the TGI was > 100 µM in [7], 90.7 µM in assay [8], 20.3 µM in assay [9] and > 100 µM in assay [10].

Turning to `c1ccc(-c2cc(C3CO3)c3ccccc3n2)cc1` (configuration not stated), the TGI in assay [1] was determined as 28.3 µM; in assay [2], 3.51 µM; in assay [3], 36.6 µM; in [4], 37.4 µM; in assay [5], 35.8 µM; in [6] it was 43.1 µM. The TGI stood at 47.3 µM in [7], 83.9 µM in assay [8], 39.8 µM in [9] and 45.3 µM in assay [10].

Turning to `C/C(=C\C1=C(Cl)C(=O)c2ccccc2C1=O)C(=O)O`, the GI50 was 18300 nM in assay [1]; 15500 nM in assay [2]; 15100 nM in assay [3]; 18700 nM in assay [4]; 20100 nM in [5]; 19600 nM in assay [6]. Besides, the GI50 was 18300 nM in assay [7], 30300 nM in [8], 21900 nM in assay [9] and 24200 nM in [10]. Further, the TGI stood at 33.1 µM in assay [1]; 28.9 µM in assay [2]; 28.6 µM in [3]; 34 µM in [4]; 36.7 µM in assay [5]; 37.5 µM in assay [6]. For the same compound, the TGI was 32.2 µM in [7], 69.3 µM in assay [8], 36.3 µM in [9] and > 100 µM in assay [10].
